In patent US4478841A, “3-[2-(Tetra- and Hexa- hydro-4-pyridyl)-ethyl]-indoles and their use as medicaments” (Pharmuka Laboratoires, priority 1981, dated 1984):
Read-outs that look alike come from different tables or passages of the source.

Columns and labels:
[1] = system: serotonin uptake, human blood platelets; assay: Inhibition of serotonin uptake by human blood platelets; format: cell-based; details: Platelet, read-out: Inhibition of serotonin uptake I50
Description: It is known that serotonin uptake by the blood platelets is a good model of the uptake of this amine by the neurons (cf. J. Tuomisto, J. Pharm., Pharmac., 26, 92 (1974). When applied to the study of medicaments, a method involving the use of blood platelets is of great interest because it allows the use of human cells so that its anticipation character is good.
The capacity of products to inhibit serotonin uptake or to induce serotonin release, was shown on human blood platelets, according to J. L. David and Coll. "Platelets Function and Thrombosis, a Review of Methods" p. 335 (Plenum Press, London, 1972).
1. Inhibition of Serotonin uptake
The results are expressed by a 50% inhibiting dose or I50 which represents the product dose, in micromoles per liter, which reduces the rate of serotonin uptake by 50%.

[2] = system: serotonin release, human blood platelets; assay: Serotonin release from human blood platelets; format: cell-based; details: Platelet, product concentration 5 × 10^-5 moles per liter, relative to controls, read-out: Percent of increased serotonin release
Method: "Platelets Function and Thrombosis, a Review of Methods" p.
The action of the products on serotonin release is tested at a concentration of 5×10^-5 moles per liter.

[3] = Acute oral toxicity in male CD1 mice; details: mouse, in vivo, 3 days of observation
Method: The acute toxicity of the products has been established in the male CD1 (Charles RIVER) mice following oral administration. The LD50 calculated following 3 days of observation by the cumulative method of J. J. Reed and Coll. (Am. J. Hyg. 27, 493-1938) is 600 mg/kg for compounds of Examples 1 and 2 and about 400 mg/kg for the compound of Example 4.

Structure (SMILES) | IC50 ([1]; Homo sapiens) [nM] | activation at 50 µM [2] [%] | LD50 at 72 h [3] [mg/kg] | IC50 ([1]; human blood platelets, dose reducing the rate of serotonin uptake by 50%) [nM]
C1=C(CCc2c[nH]c3ccccc23)CCNC1 [Example 1, 3-[2-(1,2,5,6-tetrahydro-4-pyridyl)-ethyl]-indole] | 55 | 85 | 600 | 
CC(Cc1c[nH]c2ccccc12)C1=CCNCC1 (stereo not drawn) [Example 2, 3-[2-(1,2,5,6-tetrahydro-4-pyridyl)-2-methyl-ethyl]-indole] | 40 | 68 | 600 | 
CC(Cc1c[nH]c2ccccc12)C1CCNCC1 (stereo not drawn) [Example 4, 3-[2-(4-piperidyl)-2-methyl-ethyl]-indole] | 10 | 76 | ~400 | 
CN(C)CCCN1c2ccccc2CCc2ccccc21 [Imipramine, imipramine, reference compound] | 400 | 13 |  | 
c1ccc2c(CCC3CCNCC3)c[nH]c2c1 [Indalpine, 3-[2-(4-piperidyl)-ethyl]-indole, reference compound] |  | 22 |  | 35
CC(N)Cc1ccc(Cl)cc1 (stereo not drawn) [p-chloro-amphetamine, p-chloroamphetamine, reference compound] | 12000 | 51 |  | 
